Active and inactive are the calls of the source. Rule as the data show it, for most assays here: actives have a measured EC50 and inactives only a lower limit.
Assays:
Protein RecA = target: T1, Protein RecA (Mycobacterium tuberculosis, UniProt P9WHJ3); assay: Fluorescence Cell-Free Homogeneous Dose Retest to Identify Inhibitors of RecA-Intein Splicing Activity. [Related pubchem assays (depositor defined):AID2097, AID2223, AID489010, AID492950]; type: functional
T1 sequence (P9WHJ3 whole entry): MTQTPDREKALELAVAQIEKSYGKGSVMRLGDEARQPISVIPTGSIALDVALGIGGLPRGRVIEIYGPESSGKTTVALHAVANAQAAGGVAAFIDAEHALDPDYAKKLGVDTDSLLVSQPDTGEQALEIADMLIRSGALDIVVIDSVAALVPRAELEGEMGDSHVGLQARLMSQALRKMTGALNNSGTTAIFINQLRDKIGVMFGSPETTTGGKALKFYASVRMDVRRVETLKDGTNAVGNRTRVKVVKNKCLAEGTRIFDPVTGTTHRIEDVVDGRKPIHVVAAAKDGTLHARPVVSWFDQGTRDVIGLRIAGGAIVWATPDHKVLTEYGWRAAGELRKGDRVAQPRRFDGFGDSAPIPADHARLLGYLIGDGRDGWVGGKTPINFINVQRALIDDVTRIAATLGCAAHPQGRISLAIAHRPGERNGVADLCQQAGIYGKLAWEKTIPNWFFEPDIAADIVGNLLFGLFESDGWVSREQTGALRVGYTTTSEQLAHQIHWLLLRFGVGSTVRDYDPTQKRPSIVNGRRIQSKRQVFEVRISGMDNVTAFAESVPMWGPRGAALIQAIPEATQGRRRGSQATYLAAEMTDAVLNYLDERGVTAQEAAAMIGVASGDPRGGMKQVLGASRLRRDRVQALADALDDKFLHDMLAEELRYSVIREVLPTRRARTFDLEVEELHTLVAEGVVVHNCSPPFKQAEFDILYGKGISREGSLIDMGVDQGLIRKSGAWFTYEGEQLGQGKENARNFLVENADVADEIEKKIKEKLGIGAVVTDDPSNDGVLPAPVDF

[1] = target: T2, Replicative DNA helicase DnaB (Mycobacterium tuberculosis, UniProt P9WMR3); assay: DnaB intein splicing inhibitors, dose response, biochemical, cell-free fluorescence (AID 449749); type: functional
T2 sequence (P9WMR3 whole entry): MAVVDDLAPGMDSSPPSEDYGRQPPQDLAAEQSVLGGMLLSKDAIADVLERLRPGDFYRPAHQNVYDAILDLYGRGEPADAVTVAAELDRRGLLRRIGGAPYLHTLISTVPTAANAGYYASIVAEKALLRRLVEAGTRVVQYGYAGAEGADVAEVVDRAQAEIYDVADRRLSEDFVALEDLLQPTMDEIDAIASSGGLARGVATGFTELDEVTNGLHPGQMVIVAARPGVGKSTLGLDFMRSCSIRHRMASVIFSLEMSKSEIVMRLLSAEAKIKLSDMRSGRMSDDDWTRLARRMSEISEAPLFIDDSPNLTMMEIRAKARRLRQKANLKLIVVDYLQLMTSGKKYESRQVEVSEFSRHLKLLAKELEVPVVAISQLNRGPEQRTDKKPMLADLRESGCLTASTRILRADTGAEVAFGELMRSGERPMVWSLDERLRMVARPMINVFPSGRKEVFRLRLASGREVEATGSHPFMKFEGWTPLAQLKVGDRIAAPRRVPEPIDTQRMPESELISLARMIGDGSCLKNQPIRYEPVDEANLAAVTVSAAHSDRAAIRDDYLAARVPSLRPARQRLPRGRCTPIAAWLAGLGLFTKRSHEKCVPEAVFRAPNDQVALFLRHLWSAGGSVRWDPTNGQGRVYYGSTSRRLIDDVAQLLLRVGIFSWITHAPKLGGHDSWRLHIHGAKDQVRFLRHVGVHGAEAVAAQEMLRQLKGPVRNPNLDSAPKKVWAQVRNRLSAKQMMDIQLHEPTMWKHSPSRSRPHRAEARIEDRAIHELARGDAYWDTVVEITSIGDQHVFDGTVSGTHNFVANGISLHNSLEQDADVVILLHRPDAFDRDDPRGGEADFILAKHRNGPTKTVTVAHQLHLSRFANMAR

[2] = Luminescence Cell-Based Dose Response HTS to Identify Activators of Luciferase Translation or Activity in H4 […] Cells. [Related pubchem assays: 1829 (Project Summary), 1814 (Primary HTS)]; type: functional
H4 = assay: Luminescence Cell-Based Dose Response HTS to Identify Activators of 5'UTR Stem-Loop Driven Prion Protein mRNA Translation in H4 Neuroglioblastoma Cells. [Related pubchem assays: 1829 (Project Summary), 1814 (Primary HTS)]; type: functional; conditions: Homo sapiens
[3] = Luminescence Cell-Based Dose Confirmation HTS to Identify Activators of 5'UTR Stem-Loop Driven Alpha-Synuclein mRNA Translation in H4 Neuroglioblastoma Cells. [Related pubchem assays: 1829 (Project Summary), 1814 (Primary HTS)]; type: functional
[4] = inhibitors of intracellular T. cruzi replication, confirmation, NIH3T3 host cells, beta-gal luminescence (AID 2044); type: functional, cell-based;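 also: intracellular parasites grown in NIH/3T3 mouse fibroblasts as host cells; luminescent beta-galactosidase reporter signal from transgenic T. cruzi replicating inside host cells; inhibitors lower the luminescence signal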
[5] = cytotoxicity toward NIH3T3 fibroblasts, dose response, counter-screen, cell-based, ATP luminescence, mouse fibroblasts (AID 2010); type: functional;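 also: cells exposed to compound for about 90 hours before reading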
[6] = target: T3, Heat shock factor protein 1 (Mus musculus, UniProt P38532); assay: HSF1 potentiators in luciferase reporter cells, confirmation, cell-based, NIH3T3, luminescence, dose retest (AID 435004); type: functional;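 also: stress induced by proteasome inhibitor MG132 added 30 min after compound; luciferase reporter driven by HSF1 response element in NIH3T3 cells; actives raise luminescence as potentiators of the MG132 stress response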
T3 sequence (P38532 whole entry): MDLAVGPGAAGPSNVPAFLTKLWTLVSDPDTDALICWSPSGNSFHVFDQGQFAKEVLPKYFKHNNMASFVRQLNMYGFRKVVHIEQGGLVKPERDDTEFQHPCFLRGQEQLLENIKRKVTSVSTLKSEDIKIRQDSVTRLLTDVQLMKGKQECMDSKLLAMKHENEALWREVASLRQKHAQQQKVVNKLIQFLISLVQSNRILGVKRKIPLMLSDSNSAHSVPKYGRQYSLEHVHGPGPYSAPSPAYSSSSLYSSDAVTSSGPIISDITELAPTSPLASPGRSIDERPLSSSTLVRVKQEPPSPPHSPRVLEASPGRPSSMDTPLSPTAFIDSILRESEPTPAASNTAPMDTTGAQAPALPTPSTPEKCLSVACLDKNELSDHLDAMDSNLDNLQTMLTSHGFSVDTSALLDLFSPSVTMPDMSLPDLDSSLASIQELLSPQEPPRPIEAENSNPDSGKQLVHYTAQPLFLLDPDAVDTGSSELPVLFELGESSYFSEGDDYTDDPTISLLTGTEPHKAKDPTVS

[7] = HEp-2 cell cytotoxicity, dose response, cytotoxicity control for RSV inhibitor project, HTS (AID 2410); type: functional; conditions: human respiratory syncytial virus
[8] = system: Streptococcus sp. 'group A'; assay: growth inhibition of control SK(-) GAS strain, dose response, counter-screen for streptokinase expression inhibitor project, luminescence, kanamycin, BacTiterGlo, confirmation (AID 1900); type: functional, organism-based
Streptococcus = assay: Group A Streptococcus viability loss, dose response, counter-screen for streptokinase expression inhibitor project, luminescence, BacTiterGlo (AID 1915); type: functional, organism-based;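 also: potency for reduction of bacterial viability or growth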
Streptokinase A = target: T4, Streptokinase A (Streptococcus pyogenes serotype M1, UniProt P10520); assay: S. pyogenes streptokinase expression inhibitors, potency, dose response, plasminogen activation absorbance, OD405 (AID 1914); type: functional, Streptococcus pyogenes M1 GAS;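 also: secreted streptokinase activity via plasminogen activation per viability signal from cell pellet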
T4 sequence (P10520 whole entry): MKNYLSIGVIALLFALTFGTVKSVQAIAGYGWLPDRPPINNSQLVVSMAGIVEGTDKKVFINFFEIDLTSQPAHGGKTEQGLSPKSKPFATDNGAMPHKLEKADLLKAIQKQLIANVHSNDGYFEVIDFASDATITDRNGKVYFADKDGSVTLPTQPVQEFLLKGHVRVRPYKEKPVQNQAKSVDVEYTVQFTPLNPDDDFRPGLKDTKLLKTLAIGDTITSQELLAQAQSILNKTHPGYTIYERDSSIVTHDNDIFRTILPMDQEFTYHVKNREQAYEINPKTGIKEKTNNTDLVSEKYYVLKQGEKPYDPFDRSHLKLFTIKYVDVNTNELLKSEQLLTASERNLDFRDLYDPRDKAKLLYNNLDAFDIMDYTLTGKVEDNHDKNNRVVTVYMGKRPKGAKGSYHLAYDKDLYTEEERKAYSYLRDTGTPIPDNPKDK

INS1 = assay: beta cell apoptosis inhibitors, cytokine rescue, dose response, luminescence, retest (AID 449756); type: functional, cell-based; conditions: Rattus norvegicus, INS1;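 also: cell death triggered by IL-1 beta plus TNF-alpha plus IFN-gamma mixture; protective hits raise ATP signal compared with cytokine alone wells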

SMILES | EC50 (Protein RecA) | AC50 [1] | EC50 [2] | EC50 (H4) | EC50 [3] | other results
Cc1n[nH]c2c1C(c1ccsc1)C(C#N)=C(N)O2 (stereo unspecified) | 4.1 µM (active) | 11 µM (active) |  |  |  | 
O=C(NNC(=S)Nc1ccccc1)c1cccs1 |  |  | 12.9 µM (active) | 75.4 µM (active) | 11.2 µM (active) | 
c1ccc(-c2cc3n(c2)CCc2ccccc2-3)cc1 |  |  | 15.9 µM (active) | 22.7 µM (active) | 10.7 µM (active) | 
Cc1nc(OCc2ccccc2)c2sc3nc4c(cc3c2n1)COC(C)(C)C4 |  |  | 7.5 µM (active) | > 120 µM (not active) | 9.71 µM (active) | 
CN1CCc2nc(SC(C(=O)O)c3ccccc3)c(C#N)c(-c3cccs3)c2C1 (stereo unspecified) | 12.3 µM (active) | > 380 µM (inactive) |  |  |  | EC50 [4]: 1.2 µM (active); EC50 [5]: > 30 µM (not active)
CCOc1ccc(OCCC(=O)OCC(=O)N2CCN(S(=O)(=O)c3ccc(Cl)cc3)CC2)cc1 |  |  |  |  |  | EC50 [6]: 18.5 µM (active)
CC(C)(C)c1[nH]nc2c1C(c1ccco1)C(C#N)=C(N)O2 (stereo unspecified) | 1.21 µM (active) | 3.88 µM (active) |  |  |  | 
CCOC(=O)c1c(C)n(C)c2ccc(OCC(O)Cn3c(C)nc4ccccc43)cc12 (stereo unspecified) |  |  |  |  |  | CC50 [7]: 19.4 µM (active)
COc1ccc(Br)cc1[C@H]1[C@@H]2C=CCC[C@@]2(C)C(=O)N1Cc1ccccc1 | 26.7 µM (active) | > 380 µM (inactive) |  |  |  | EC50 [8]: 7.12 µM (active); EC50 (Streptococcus): 11.1 µM (active); EC50 (Streptokinase A): 37.6 µM (active)
Cc1noc(C)c1COC(=O)c1cc2ccccc2cc1O |  |  |  |  |  | CC50 [7]: 43.1 µM (active)
CC(=O)Cn1ncc(N2CCCCC2)c(Cl)c1=O |  |  | 11.5 µM (active) | 23.5 µM (active) | 24.6 µM (active) | 
Cc1cccc(C(=O)NC2CCCCCCC2)c1 |  |  | 11.9 µM (active) | > 120 µM (not active) | 29.8 µM (active) | 
CN1CCN(C2=C(Cl)C(=O)N(C3CCCCC3)C2=O)CC1 |  |  | 19.8 µM (active) | > 120 µM (not active) | 8.46 µM (active) | 
O=C(CCc1nnc2n(Cc3ccc(F)cc3)c(=O)c3ccccc3n12)N1CCN(c2ccccn2)CC1 |  |  |  |  |  | CC50 [7]: 37.4 µM (active)
Oc1c2c(nn1-c1ccccc1)CCSC2 | 13.7 µM (active) | 12 µM (active) |  |  |  | 
Cc1nc2cc(NC(=O)N3CCC(c4ccccc4)C3)ccc2n1C (stereo unspecified) |  |  | 17.7 µM (active) | 27.4 µM (active) | 46.9 µM (active) | 

SMILES | EC50 (Protein RecA) | AC50 [1] | EC50 [2] | EC50 (H4) | EC50 [3] | other results
CC1(C)CC(CCNC(=O)CCl)(c2ccccc2)CCO1 (stereo unspecified) | 14.5 µM (active) | 179 µM (active) |  |  |  | 
COc1ccc(S(=O)(=O)N2CCN(c3nc(-c4cccnc4)nc4ccccc34)CC2)cc1 |  |  |  |  |  | CC50 [7]: 30.4 µM (active)
CCOC(=O)Nc1ccc2c(C)cc(=O)oc2c1 |  |  | 30.9 µM (active) | 12.9 µM (active) | 13 µM (active) | 
N#Cc1nc(N)nc(N(c2ccccc2)c2ccccc2)n1 | 66.6 µM (active) | 39.8 µM (active) |  |  |  | 
COc1cccc(-c2cc(O)[nH]n2)c1 | 0.757 µM (active) | 2.51 µM (active) |  |  |  | 
Cc1ccc(/C=N/N2CCN(Cc3ccccc3)CC2)s1 |  |  | 11.9 µM (active) | > 120 µM (not active) | 21 µM (active) | 
Cc1ccccc1C1c2[nH]c3ccccc3c2CCN1C(=O)c1ccc(=O)n(C)n1 (stereo unspecified) |  |  |  |  |  | CC50 [7]: 20.4 µM (active)
NC(=O)c1sc2nc(N3CCOCC3)c3c(c2c1N)CCCC3 |  |  |  |  |  | CC50 [7]: > 50 µM (active)
CC1Nc2ncnc(N3CCc4ccccc4C3)c2N(Cc2ccc(Cl)cc2)C1=O (stereo unspecified) | 30.9 µM (active) | > 380 µM (inactive) |  |  |  | 
Nn1c(SCc2ccccc2F)nnc1-c1cccnc1 |  |  | 36.8 µM (active) | 33.4 µM (active) | 64.2 µM (active) | 
O=C(NCCC1=CCCCC1)c1cnccn1 |  |  | 4.95 µM (active) | 11 µM (active) | 8.37 µM (active) | 
CC1=C(CC(=O)c2ccc(Cl)cc2)C(=O)c2ccccc2C1=O | 1.24 µM (active) | 7.84 µM (active) |  |  |  | AC50 (INS1): 8.26 µM (active)
Cc1ccccc1C1=NC(c2ccc(F)cc2F)ON1 (stereo unspecified) |  |  | 8.1 µM (active) | 33.8 µM (active) | 33.6 µM (active) | 
COc1ccccc1NS(=O)(=O)c1ccc(-c2cc(C)no2)s1 |  |  | > 30 µM (not active) | > 120 µM (not active) | > 120 µM (not active) | 
CC1CCc2[nH]c3ccc(C(=O)N(C)CC(=O)Nc4ccccc4Br)cc3c2C1 (stereo unspecified) |  |  |  |  |  | CC50 [7]: 22 µM (active)
COc1ccc(OCc2cc(C(=O)N(C)Cc3cc(C4CC4)[nH]n3)no2)c(Cl)c1 |  |  | 69.5 µM (active) | 37.8 µM (active) | 28.2 µM (active) | 

— ChEMBL document CHEMBL1201862, “PubChem BioAssay data set” (2004)
